# Experimental data reported in patent publication US20090075951A1, “Methods and Reagents for the Treatment of Inflammatory Disorders” (CombinatoRx, Inc., priority 2003, published 2009).
# Like-named read-outs stand apart in the source and are kept apart here.
# Tests used:
# [1] = test system: TNFα secretion from LPS stimulated white blood cells from human buffy coat; experiment: TNFα secretion assay, LPS stimulation
# Experimental: (§1) Various concentrations of each test compound were added at the time of stimulation. […] After the plate was washed with 0.1% Tween 20/PBS, an HRP-luminescent substrate was added to each well and light intensity measured using a LJL Analyst plate luminometer.
# [2] = test system: TNFα secretion from PMA/ionomycin stimulated white blood cells from human buffy coat; experiment: TNFα secretion assay, PMA/ionomycin stimulation
# Experimental: as §1
# cytokine secretion = experiment: Suppression of cytokine secretion in vitro by individual tricyclic compounds
# Experimental: Individual tricyclic compounds were tested for their ability to suppress cytokine secretion in vitro.
# [3] = Homo sapiens, read-out: TNFα LPS percent inhibition, 0.03 μM
# [4] = Homo sapiens, read-out: TNFα LPS percent inhibition, 0.06 μM
# [5] = Homo sapiens, read-out: TNFα LPS percent inhibition, […]
# [6] = read-out: TNFα PI percent inhibition, 0.03 μM
# [7] = read-out: TNFα PI percent inhibition, 0.06 μM
# [8] = read-out: TNFα PI percent inhibition, […]
# [9] = read-out: IL-1β LPS percent inhibition
# [10] = read-out: IL-2 PI percent inhibition
# [11] = Homo sapiens, read-out: TNFα LPS percent inhibition
# [12] = read-out: TNFα PI percent inhibition
smiles,measurement,setting,value
"CNCCCN1c2ccccc2CCc2ccccc21 [Desipramine, desipramine]",inhibition at 0.03 µM,[1]; [3],0%
same,inhibition at 0.06 µM,[1]; [4],0%
same,inhibition at 0.5 µM,"[1]; Homo sapiens, read-out: TNFα LPS percent inhibition, 0.50 μM",0%
same,inhibition at 1 µM,"[1]; Homo sapiens, read-out: TNFα LPS percent inhibition, 1.00 μM",0%
same,inhibition at 2 µM,"[1]; Homo sapiens, read-out: TNFα LPS percent inhibition, 2.00 μM",0%
same,inhibition at 4 µM,"[1]; Homo sapiens, read-out: TNFα LPS percent inhibition, 4.00 μM",0%
same,inhibition at 8 µM,"[1]; Homo sapiens, read-out: TNFα LPS percent inhibition, 8.00 μM",0%
same,inhibition at 16 µM,[1]; [5],3%
same,inhibition at 32 µM,[1]; [5],34%
same,inhibition at 64 µM,[1]; [5],64%
same,percent inhibition of TNFα secretion,"[1]; LPS, Prednisolone 1 μM, Desipramine μM r5-r13: 0,0.5,1,2,4,8,16,32,64",60.8%
same,inhibition at 0.03 µM,[2]; [6],0%
same,inhibition at 0.06 µM,[2]; [7],0%
same,inhibition at 0.5 µM,"[2]; read-out: TNFα PI percent inhibition, 0.50 μM",0%
same,inhibition at 1 µM,"[2]; read-out: TNFα PI percent inhibition, 1.00 μM",0%
same,inhibition at 2 µM,"[2]; read-out: TNFα PI percent inhibition, 2.00 μM",1%
same,inhibition at 4 µM,"[2]; read-out: TNFα PI percent inhibition, 4.00 μM",17%
same,inhibition at 8 µM,"[2]; read-out: TNFα PI percent inhibition, 8.00 μM",26%
same,inhibition at 16 µM,[2]; [8],60%
same,inhibition at 32 µM,[2]; [8],79%
same,inhibition at 64 µM,[2]; [8],89%
same,inhibition at 0.03 µM,cytokine secretion; [9],0%
same,inhibition at 0.06 µM,cytokine secretion; [9],0%
same,inhibition at 0.5 µM,cytokine secretion; [9],11%
same,inhibition at 1 µM,cytokine secretion; [9],13%
same,inhibition at 2 µM,cytokine secretion; [9],10%
same,inhibition at 4 µM,cytokine secretion; [9],10%
same,inhibition at 8 µM,cytokine secretion; [9],10%
same,inhibition at 16 µM,cytokine secretion; [9],3%
same,inhibition at 32 µM,cytokine secretion; [9],9%
same,inhibition at 64 µM,cytokine secretion; [9],36%
same,inhibition at 0.03 µM,cytokine secretion; [10],0%
same,inhibition at 0.06 µM,cytokine secretion; [10],0%
same,inhibition at 0.5 µM,cytokine secretion; [10],0%
same,inhibition at 1 µM,cytokine secretion; [10],0%
same,inhibition at 2 µM,cytokine secretion; [10],0%
same,inhibition at 4 µM,cytokine secretion; [10],0%
same,inhibition at 8 µM,cytokine secretion; [10],8%
same,inhibition at 16 µM,cytokine secretion; [10],38%
same,inhibition at 32 µM,cytokine secretion; [10],68%
same,inhibition at 64 µM,cytokine secretion; [10],76%
"CN(C)CCC=C1c2ccccc2COc2ccccc21 [Doxepin, doxepin]",inhibition at 0.03 µM,[1]; [3],0%
same,inhibition at 0.06 µM,[1]; [4],5%
same,inhibition at 63 µM,[1]; [5],13%
same,inhibition at 0.03 µM,[2]; [6],0%
same,inhibition at 0.06 µM,[2]; [7],0%
same,inhibition at 63 µM,[2]; [8],78%
same,inhibition at 0.03 µM,cytokine secretion; [9],0%
same,inhibition at 0.06 µM,cytokine secretion; [9],1%
same,inhibition at 63 µM,cytokine secretion; [9],26%
same,inhibition at 0.03 µM,cytokine secretion; [10],0%
same,inhibition at 0.06 µM,cytokine secretion; [10],0%
same,inhibition at 63 µM,cytokine secretion; [10],61%
"CN(C)CCCN1c2ccccc2CCc2ccccc21 [Imipramine, imipramine]",inhibition at 0.03 µM,[1]; [3],0%
same,inhibition at 0.06 µM,[1]; [4],10%
same,inhibition at 63 µM,[1]; [5],3%
same,inhibition at 0.03 µM,[2]; [6],0%
same,inhibition at 0.06 µM,[2]; [7],0%
same,inhibition at 63 µM,[2]; [8],92%
same,inhibition at 0.03 µM,cytokine secretion; [9],0%
same,inhibition at 0.06 µM,cytokine secretion; [9],0%
same,inhibition at 63 µM,cytokine secretion; [9],13%
same,inhibition at 0.03 µM,cytokine secretion; [10],0%
same,inhibition at 0.06 µM,cytokine secretion; [10],19%
same,inhibition at 63 µM,cytokine secretion; [10],85%
Cc1cc2c(s1)Nc1ccccc1N=C2N1CCN(C)CC1 [Olanzapine],inhibition at 0.03 µM,[1]; [11],0%
same,inhibition at 0.06 µM,[1]; [11],0%
same,inhibition at 0.5 µM,[1]; [11],0%
same,inhibition at 1 µM,[1]; [11],0%
same,inhibition at 2 µM,[1]; [11],0%
same,inhibition at 4 µM,[1]; [11],0%
same,inhibition at 8 µM,[1]; [11],0%
same,inhibition at 16 µM,[1]; [11],0%
same,inhibition at 32 µM,[1]; [11],0%
same,inhibition at 64 µM,[1]; [11],10%
same,inhibition at 0.03 µM,[2]; [12],0%
same,inhibition at 0.06 µM,[2]; [12],0%
same,inhibition at 0.5 µM,[2]; [12],0%
same,inhibition at 1 µM,[2]; [12],0%
same,inhibition at 2 µM,[2]; [12],0%
same,inhibition at 4 µM,[2]; [12],0%
same,inhibition at 8 µM,[2]; [12],0%
same,inhibition at 16 µM,[2]; [12],13%
same,inhibition at 32 µM,[2]; [12],27%
same,inhibition at 64 µM,[2]; [12],54%
same,inhibition at 0.03 µM,cytokine secretion; [9],0%
same,inhibition at 0.06 µM,cytokine secretion; [9],0%
same,inhibition at 0.5 µM,cytokine secretion; [9],2%
same,inhibition at 1 µM,cytokine secretion; [9],5%
same,inhibition at 2 µM,cytokine secretion; [9],3%
same,inhibition at 4 µM,cytokine secretion; [9],3%
same,inhibition at 8 µM,cytokine secretion; [9],7%
same,inhibition at 16 µM,cytokine secretion; [9],21%
same,inhibition at 32 µM,cytokine secretion; [9],41%
same,inhibition at 64 µM,cytokine secretion; [9],40%
same,inhibition at 0.03 µM,cytokine secretion; [10],0%
same,inhibition at 0.06 µM,cytokine secretion; [10],0%
same,inhibition at 0.5 µM,cytokine secretion; [10],0%
same,inhibition at 1 µM,cytokine secretion; [10],0%
same,inhibition at 2 µM,cytokine secretion; [10],0%
same,inhibition at 4 µM,cytokine secretion; [10],0%
same,inhibition at 8 µM,cytokine secretion; [10],0%
same,inhibition at 16 µM,cytokine secretion; [10],0%
same,inhibition at 32 µM,cytokine secretion; [10],0%
same,inhibition at 64 µM,cytokine secretion; [10],0%
"CNCC[C@@H](Oc1ccccc1C)c1ccccc1 [Tomoxetine, tomoxetine]",inhibition at 0.03 µM,[1]; [3],0%
same,inhibition at 0.07 µM,"[1]; Homo sapiens, read-out: TNFα LPS percent inhibition, 0.07 μM",1%
same,inhibition at 69 µM,[1]; [5],0%
same,inhibition at 0.03 µM,[2]; [6],0%
same,inhibition at 0.07 µM,"[2]; read-out: TNFα PI percent inhibition, 0.07 μM",4%
same,inhibition at 69 µM,[2]; [8],72%
same,inhibition at 0.03 µM,cytokine secretion; [9],0%
same,inhibition at 0.07 µM,cytokine secretion; [9],0%
same,inhibition at 69 µM,cytokine secretion; [9],0%
same,inhibition at 0.03 µM,cytokine secretion; [10],0%
same,inhibition at 0.07 µM,cytokine secretion; [10],1%
same,inhibition at 69 µM,cytokine secretion; [10],79%
"CC(CN(C)C)CN1c2ccccc2CCc2ccccc21 (stereo not shown) [Trimipramine, trimipramine]",inhibition at 0.01 µM,"[1]; Homo sapiens, read-out: TNFα LPS percent inhibition, 0.01 μM",0%
same,inhibition at 0.03 µM,[1]; [3],1%
same,inhibition at 0.06 µM,[1]; [4],3%
same,inhibition at 29 µM,[1]; [5],11%
same,inhibition at 0.01 µM,"[2]; read-out: TNFα PI percent inhibition, 0.01 μM",0%
same,inhibition at 0.03 µM,[2]; [6],0%
same,inhibition at 0.06 µM,[2]; [7],0%
same,inhibition at 29 µM,[2]; [8],77%
same,inhibition at 0.01 µM,cytokine secretion; [9],0%
same,inhibition at 0.03 µM,cytokine secretion; [9],0%
same,inhibition at 0.06 µM,cytokine secretion; [9],0%
same,inhibition at 29 µM,cytokine secretion; [9],2%
same,inhibition at 0.01 µM,cytokine secretion; [10],0%
same,inhibition at 0.03 µM,cytokine secretion; [10],5%
same,inhibition at 0.06 µM,cytokine secretion; [10],6%
same,inhibition at 29 µM,cytokine secretion; [10],36%
